According to PubChem BioAssay (NCI):
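The compound was tested at five concentrations on cells cultured in 96-well plates, with a 48-hour exposure period. TGI marks complete inhibition of growth.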

Experiments:
Test in all cases: NCI tumour cell line growth inhibition, 48 h
HCT-116 colon = tested on: HCT-116 colon
SNB-19 CNS = tested on: SNB-19 CNS
OVCAR-4 ovarian = tested on: OVCAR-4 ovarian
HS 578T breast = tested on: HS 578T breast
HT29 colon = tested on: HT29 colon
MCF7 breast = tested on: MCF7 breast
SW-620 colon = tested on: SW-620 colon
SK-MEL-5 melanoma = tested on: SK-MEL-5 melanoma
NCI-H23 lung = tested on: NCI-H23 lung
HOP-62 NSCLC = tested on: HOP-62 NSCLC
DU-145 prostate = tested on: DU-145 prostate
786-0 renal = tested on: 786-0 renal
UACC-257 melanoma = tested on: UACC-257 melanoma
HCT-15 colon = tested on: HCT-15 colon
NCI/ADR-RES ovarian = tested on: NCI/ADR-RES ovarian
U251 CNS = tested on: U251 CNS
MDA-N = tested on: MDA-N
HOP-92 NSCLC = tested on: HOP-92 NSCLC
NCI-H460 lung = tested on: NCI-H460 lung
BT-549 breast = tested on: BT-549 breast
OVCAR-8 ovarian = tested on: OVCAR-8 ovarian
TK-10 renal = tested on: TK-10 renal
HL-60(TB) leukemia = tested on: HL-60(TB) leukemia
OVCAR-5 ovarian = tested on: OVCAR-5 ovarian
KM12 colon = tested on: KM12 colon
M14 melanoma = tested on: M14 melanoma
IGROV1 ovarian = tested on: IGROV1 ovarian
PC-3 prostate = tested on: PC-3 prostate
SF-539 CNS = tested on: SF-539 CNS
EKVX NSCLC = tested on: EKVX NSCLC
CCRF-CEM leukemia = tested on: CCRF-CEM leukemia
SNB-75 CNS = tested on: SNB-75 CNS
SF-295 CNS = tested on: SF-295 CNS
MALME-3M melanoma = tested on: MALME-3M melanoma
RXF 393 renal = tested on: RXF 393 renal
SK-OV-3 ovarian = tested on: SK-OV-3 ovarian
SF-268 CNS = tested on: SF-268 CNS
A498 renal = tested on: A498 renal
OVCAR-3 ovarian = tested on: OVCAR-3 ovarian
HCC-2998 colon = tested on: HCC-2998 colon
MOLT-4 leukemia = tested on: MOLT-4 leukemia
MDA-MB-435 = tested on: MDA-MB-435
SK-MEL-2 melanoma = tested on: SK-MEL-2 melanoma
COLO 205 colon = tested on: COLO 205 colon
ACHN renal = tested on: ACHN renal
SK-MEL-28 melanoma = tested on: SK-MEL-28 melanoma
MDA-MB-231 breast = tested on: MDA-MB-231 breast
NCI-H226 lung = tested on: NCI-H226 lung
NCI-H522 lung = tested on: NCI-H522 lung
UO-31 renal = tested on: UO-31 renal
UACC-62 melanoma = tested on: UACC-62 melanoma
SR leukemia = tested on: SR leukemia
LOX IMVI melanoma = tested on: LOX IMVI melanoma
CAKI-1 renal = tested on: CAKI-1 renal
A549 NSCLC = tested on: A549 NSCLC
SN12C renal = tested on: SN12C renal
K-562 leukemia = tested on: K-562 leukemia
RPMI-8226 leukemia = tested on: RPMI-8226 leukemia
T-47D breast = tested on: T-47D breast

`CCCNC(=S)/N=C\c1c(O)c2ccccc2oc1=O` gave a TGI (HCT-116 colon) of over 100 µM, a TGI (SNB-19 CNS) of over 100 µM and a TGI (OVCAR-4 ovarian) of over 100 µM. It also gave a TGI (HS 578T breast) of over 100 µM, a TGI (HT29 colon) of over 100 µM and a TGI (MCF7 breast) of over 100 µM. It also gave a TGI (SW-620 colon) of over 100 µM, a TGI (SK-MEL-5 melanoma) of over 100 µM and a TGI (NCI-H23 lung) of over 100 µM. The TGI (HOP-62 NSCLC) was over 100 µM, the TGI (DU-145 prostate) was over 100 µM and the TGI (786-0 renal) was over 100 µM. For the same molecule, the TGI (UACC-257 melanoma) was over 100 µM, the TGI (HCT-15 colon) was over 100 µM and the TGI (NCI/ADR-RES ovarian) was over 100 µM. It also gave a TGI (U251 CNS) of over 100 µM, a TGI (MDA-N) of over 100 µM and a TGI (HOP-92 NSCLC) of over 100 µM. It also gave a TGI (NCI-H460 lung) of over 100 µM, a TGI (BT-549 breast) of over 100 µM and a TGI (OVCAR-8 ovarian) of over 100 µM. It also gave a TGI (TK-10 renal) of over 100 µM, a TGI (HL-60(TB) leukemia) of over 100 µM and a TGI (OVCAR-5 ovarian) of over 100 µM. It also gave a TGI (KM12 colon) of over 100 µM, a TGI (M14 melanoma) of over 100 µM and a TGI (IGROV1 ovarian) of over 100 µM. For the same molecule, the TGI (PC-3 prostate) was over 100 µM, the TGI (SF-539 CNS) was over 100 µM and the TGI (EKVX NSCLC) was over 100 µM. It also gave a TGI (CCRF-CEM leukemia) of over 100 µM, a TGI (SNB-75 CNS) of over 100 µM and a TGI (SF-295 CNS) of over 100 µM. It also gave a TGI (MALME-3M melanoma) of over 100 µM, a TGI (RXF 393 renal) of over 100 µM and a TGI (SK-OV-3 ovarian) of over 100 µM. The TGI (SF-268 CNS) was over 100 µM, the TGI (A498 renal) was over 100 µM and the TGI (OVCAR-3 ovarian) was over 100 µM. It also gave a TGI (HCC-2998 colon) of over 100 µM, a TGI (MOLT-4 leukemia) of over 100 µM and a TGI (MDA-MB-435) of over 100 µM. The TGI (SK-MEL-2 melanoma) was over 100 µM, the TGI (COLO 205 colon) was over 100 µM and the TGI (ACHN renal) was over 100 µM. It also gave a TGI (SK-MEL-28 melanoma) of over 100 µM, a TGI (MDA-MB-231 breast) of over 100 µM and a TGI (NCI-H226 lung) of over 100 µM. The TGI (NCI-H522 lung) was over 100 µM, the TGI (UO-31 renal) was over 100 µM and the TGI (UACC-62 melanoma) was over 100 µM. The TGI (SR leukemia) was over 100 µM, the TGI (LOX IMVI melanoma) was over 100 µM and the TGI (CAKI-1 renal) was over 100 µM. It also gave a TGI (A549 NSCLC) of over 100 µM and a TGI (SN12C renal) of over 100 µM.

With `Cc1ccc(S(=O)(=O)NNC(=S)Nc2cccc3ccccc23)cc1` the TGI (HCT-116 colon) was over 100 µM, the TGI (SNB-19 CNS) was over 100 µM and the TGI (OVCAR-4 ovarian) was 66.8 µM. For the same molecule, the TGI (HS 578T breast) was over 100 µM, the TGI (HT29 colon) was over 100 µM and the TGI (MCF7 breast) was over 100 µM. The TGI (SW-620 colon) was over 100 µM, the TGI (SK-MEL-5 melanoma) was 33.1 µM and the TGI (NCI-H23 lung) was over 100 µM. For the same molecule, the TGI (HOP-62 NSCLC) was over 100 µM, the TGI (DU-145 prostate) was over 100 µM and the TGI (786-0 renal) was over 100 µM. It also gave a TGI (UACC-257 melanoma) of 52.1 µM, a TGI (HCT-15 colon) of over 100 µM and a TGI (NCI/ADR-RES ovarian) of over 100 µM. For the same molecule, the TGI (U251 CNS) was over 100 µM, the TGI (MDA-N) was over 100 µM and the TGI (HOP-92 NSCLC) was 86 µM. For the same molecule, the TGI (NCI-H460 lung) was over 100 µM, the TGI (OVCAR-8 ovarian) was over 100 µM and the TGI (TK-10 renal) was over 100 µM. The TGI (HL-60(TB) leukemia) was over 100 µM, the TGI (OVCAR-5 ovarian) was over 100 µM and the TGI (KM12 colon) was 99 µM. For the same molecule, the TGI (M14 melanoma) was over 100 µM, the TGI (IGROV1 ovarian) was over 100 µM and the TGI (PC-3 prostate) was over 100 µM. For the same molecule, the TGI (SF-539 CNS) was over 100 µM, the TGI (EKVX NSCLC) was over 100 µM and the TGI (CCRF-CEM leukemia) was over 100 µM. It also gave a TGI (SNB-75 CNS) of 77.5 µM, a TGI (SF-295 CNS) of over 100 µM and a TGI (K-562 leukemia) of over 100 µM. The TGI (MALME-3M melanoma) was over 100 µM, the TGI (RXF 393 renal) was over 100 µM and the TGI (RPMI-8226 leukemia) was over 100 µM. For the same molecule, the TGI (SK-OV-3 ovarian) was over 100 µM, the TGI (SF-268 CNS) was over 100 µM and the TGI (A498 renal) was 99.5 µM. It also gave a TGI (HCC-2998 colon) of over 100 µM, a TGI (MOLT-4 leukemia) of over 100 µM and a TGI (MDA-MB-435) of over 100 µM. It also gave a TGI (SK-MEL-2 melanoma) of over 100 µM, a TGI (COLO 205 colon) of over 100 µM and a TGI (ACHN renal) of 79.9 µM. It also gave a TGI (SK-MEL-28 melanoma) of over 100 µM, a TGI (MDA-MB-231 breast) of over 100 µM and a TGI (NCI-H226 lung) of 95.2 µM. For the same molecule, the TGI (NCI-H522 lung) was 46.6 µM, the TGI (UO-31 renal) was over 100 µM and the TGI (UACC-62 melanoma) was over 100 µM. It also gave a TGI (SR leukemia) of over 100 µM, a TGI (CAKI-1 renal) of over 100 µM and a TGI (A549 NSCLC) of over 100 µM. For the same molecule, the TGI (SN12C renal) was over 100 µM and the TGI (T-47D breast) was over 100 µM.

`OC1CC(O)c2c(Cl)sc(Cl)c21` (configuration not stated) gave a TGI (HCT-116 colon) of over 100 µM, a TGI (OVCAR-4 ovarian) of over 100 µM and a TGI (HS 578T breast) of 82.4 µM. For the same molecule, the TGI (HT29 colon) was over 100 µM, the TGI (MCF7 breast) was over 100 µM and the TGI (SW-620 colon) was over 100 µM. For the same molecule, the TGI (SK-MEL-5 melanoma) was over 100 µM, the TGI (NCI-H23 lung) was 67.3 µM and the TGI (HOP-62 NSCLC) was 98.4 µM. For the same molecule, the TGI (DU-145 prostate) was over 100 µM, the TGI (786-0 renal) was over 100 µM and the TGI (UACC-257 melanoma) was 54.9 µM. The TGI (HCT-15 colon) was over 100 µM, the TGI (NCI/ADR-RES ovarian) was over 100 µM and the TGI (U251 CNS) was over 100 µM. For the same molecule, the TGI (MDA-N) was over 100 µM, the TGI (HOP-92 NSCLC) was 56.2 µM and the TGI (NCI-H460 lung) was 65.2 µM. It also gave a TGI (BT-549 breast) of over 100 µM, a TGI (OVCAR-8 ovarian) of over 100 µM and a TGI (TK-10 renal) of 82.3 µM. It also gave a TGI (HL-60(TB) leukemia) of over 100 µM, a TGI (OVCAR-5 ovarian) of over 100 µM and a TGI (KM12 colon) of over 100 µM. It also gave a TGI (M14 melanoma) of over 100 µM, a TGI (IGROV1 ovarian) of over 100 µM and a TGI (SF-539 CNS) of over 100 µM. The TGI (EKVX NSCLC) was over 100 µM, the TGI (CCRF-CEM leukemia) was over 100 µM and the TGI (SNB-75 CNS) was 49.2 µM. The TGI (SF-295 CNS) was 87.3 µM, the TGI (K-562 leukemia) was over 100 µM and the TGI (MALME-3M melanoma) was over 100 µM. It also gave a TGI (RXF 393 renal) of 11.5 µM, a TGI (SK-OV-3 ovarian) of 82 µM and a TGI (SF-268 CNS) of over 100 µM. It also gave a TGI (A498 renal) of over 100 µM, a TGI (OVCAR-3 ovarian) of 70.8 µM and a TGI (MOLT-4 leukemia) of over 100 µM. It also gave a TGI (MDA-MB-435) of over 100 µM, a TGI (SK-MEL-2 melanoma) of 49.4 µM and a TGI (COLO 205 colon) of 33.4 µM. For the same molecule, the TGI (ACHN renal) was over 100 µM, the TGI (SK-MEL-28 melanoma) was over 100 µM and the TGI (MDA-MB-231 breast) was over 100 µM. The TGI (NCI-H226 lung) was over 100 µM, the TGI (NCI-H522 lung) was 56.8 µM and the TGI (UO-31 renal) was 77.5 µM. It also gave a TGI (UACC-62 melanoma) of over 100 µM, a TGI (SR leukemia) of over 100 µM and a TGI (LOX IMVI melanoma) of over 100 µM. It also gave a TGI (CAKI-1 renal) of over 100 µM, a TGI (A549 NSCLC) of 89.2 µM and a TGI (SN12C renal) of over 100 µM. It also gave a TGI (T-47D breast) of over 100 µM.
